The source of these data is paper PMC11509018, “Evaluation of the Role of Tanshinone I in an In Vitro System of Charcot-Marie-Tooth Disease Type 2N” (International Journal of Molecular Sciences, 2024).

The target of test [1] is T1, AlaRS^R329H (Homo sapiens, UniProt P49588, R329H).
T1 construct: made in house; host or cells: E. coli BL21 (DE3), pET-21a
T1 sequence (P49588 1-968 R329H): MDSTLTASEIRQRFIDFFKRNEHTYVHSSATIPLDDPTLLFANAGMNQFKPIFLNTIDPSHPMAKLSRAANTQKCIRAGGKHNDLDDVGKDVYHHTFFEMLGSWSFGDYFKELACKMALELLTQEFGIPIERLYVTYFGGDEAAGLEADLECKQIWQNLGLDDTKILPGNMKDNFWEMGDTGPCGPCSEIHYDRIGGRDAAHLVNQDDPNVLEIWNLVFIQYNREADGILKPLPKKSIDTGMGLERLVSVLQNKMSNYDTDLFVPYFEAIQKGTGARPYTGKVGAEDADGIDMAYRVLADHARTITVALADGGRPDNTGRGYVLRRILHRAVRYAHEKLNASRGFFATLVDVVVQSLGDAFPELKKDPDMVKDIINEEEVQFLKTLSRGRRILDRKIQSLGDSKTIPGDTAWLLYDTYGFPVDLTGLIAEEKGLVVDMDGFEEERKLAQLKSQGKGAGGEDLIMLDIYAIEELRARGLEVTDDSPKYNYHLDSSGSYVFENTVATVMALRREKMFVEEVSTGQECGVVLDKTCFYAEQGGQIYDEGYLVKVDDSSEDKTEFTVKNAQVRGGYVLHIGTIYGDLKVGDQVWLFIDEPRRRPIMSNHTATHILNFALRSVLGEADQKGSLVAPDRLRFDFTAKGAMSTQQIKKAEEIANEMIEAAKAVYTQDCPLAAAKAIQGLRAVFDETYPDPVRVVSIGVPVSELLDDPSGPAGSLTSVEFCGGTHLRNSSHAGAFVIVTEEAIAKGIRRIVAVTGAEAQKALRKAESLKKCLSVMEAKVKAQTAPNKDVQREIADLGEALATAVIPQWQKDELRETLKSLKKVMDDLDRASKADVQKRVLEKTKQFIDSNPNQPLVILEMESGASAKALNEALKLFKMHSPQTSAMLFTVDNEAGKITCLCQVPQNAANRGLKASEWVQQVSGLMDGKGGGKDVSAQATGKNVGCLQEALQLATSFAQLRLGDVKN
Put plainly: Biolayer interferometry (BLI). The format is binding. The following applies: immobilized AlaRS^R329H, 40, 20, 10, 5, 2.5 μM, mean ± SD, triplicate. An excerpt:
To quantitatively analyze the binding affinity between the small molecules and the CMT mutant proteins, we performed BLI analysis on the selected candidates. BLI offers direct measurements of drug–protein binding kinetics, including key parameters such as the equilibrium dissociation constant (KD), association rate (Kon), and dissociation rate (Koff). This analysis provided key insights into the binding affinities of the four small molecules with the mutant protein AlaRS^R329H. […] To further quantify the binding of small molecules to mutant proteins, binding experiments with AlaRS^R329H proteins and small molecules were conducted using an Octet R8 system (ForteBio, Fremont, CA, USA). Purified His-tagged AlaRS^R329H proteins (500 μg/mL) were captured on Ni-NTA biosensors (ForteBio, Fremont, CA, USA), achieving a saturation response of 4–5 nm after 300 s. The biosensors were then transferred to Octet buffer (PBS with 0.01% Tween 20) for 180 s to remove loosely bound, nonspecific proteins and to establish a stable baseline. Following this, the sensors were immersed in diluted Tanshinone I (2.5–100 μM in assay buffer) for 120 s to record the association signal, and then transferred back into Octet buffer to monitor the dissociation signal for 120 s. Reference wells containing buffer instead of Tanshinone I were included to correct for baseline shifts. Additionally, a parallel set of Ni-NTA sensors in buffer served as negative reference controls to account for nonspecific binding of the compounds to the biosensor surface. The data were processed using a double reference subtraction protocol to eliminate nonspecific signals, background noise, and signal drifts caused by biosensor variability. All assays were performed in 96-well black plates with a total volume of 200 μL per well at 30 °C. Data analysis, including correction and curve fitting, was carried out using Octet® Analysis Studio 12.2.2.26. The experiment was repeated three times.
A general note: Biolayer interferometry detects binding as a change in optical thickness at a sensor tip.

Test [2] has as its target T1, AlaRS^R329H. Put plainly: Thermal shift assay (TSA). In kind it is binding. To be noted: positive hit = shift of more than 2.5 °C. An excerpt:
In this assay, with increasing temperatures, the protein undergoes thermal unfolding, exposing its hydrophobic core. Subsequently, a fluorescent dye binds to these hydrophobic regions, becoming unquenched. Fluorescence is closely monitored, and the midpoint of the protein unfolding transition is designated as the Tm. Ligand binding frequently influences protein thermal stability during denaturation. Thus, the ligand binding affinity of any potential inhibitor can be gauged by evaluating the shift in the Tm. In this experiment, we screened a library of 2000 small molecules (Table S1) and classified as positive hits those that caused a shift in the Tm of the mutant protein of more than 2.5 °C. From the TSA, we identified four small molecules that met this criterion (Figure 2A, Table 1). Specifically, Atazanavir sulfate caused a shift of 4.0 °C, Tanshinone I a shift of 3.1 °C, Hederacolchiside A1 a shift of 4.3 °C, and Hexylresorcinol a shift of 5.5 °C (Figure 2B). To assess the impact of small molecules on the thermal stability of mutant proteins, thermal shift assays were performed using a […] (Applied Biosystems, Waltham, MA, USA) with the Protein Thermal Shift™ Kit dye (Thermo Fisher Scientific, Waltham, MA, USA). Each well of a 96-well Optical Reaction Plate (Applied Biosystems) contained 14 μL of thermal shift buffer, 2 μL of diluted thermal shift dye (8×), 2 μL of a 1 mM small molecule solution, and 2 μL of 1 mg/mL protein. Plates were incubated at 4 °C for 1 h before being heated from 25 °C to 95 °C at 1 °C/min. The fluorescence signal of SYPRO orange (excitation/emission: 490/530 nm) was recorded at 30 s intervals to monitor protein denaturation. The melting temperature (Tm), defined as the midpoint of the unfolding transition, was determined from the fluorescence–temperature curve. ΔTm was calculated as the difference in Tm between AlaRS^R329H treated with compounds and the control. Experiments were conducted in triplicate for accuracy. The experiment was repeated three times.

In the case of `Cc1coc2c1C(=O)C(=O)c1c-2ccc2c(C)cccc12` [Tanshinone I], at AlaRS^R329H [1], the Kd turned out to be 5.1 ± 1.9 µM. In addition, at AlaRS^R329H [2], the “ΔTm (shift between the Tm values of AlaRS^R329H with and without compounds)” value worked out at 3.1 °C.

In general, Kd refers to a measure of binding affinity in units of concentration. Higher therefore signals weaker binding.
